Assay [1] in a line: Inhibition of wild type EGFR in mouse BaF3 cells assessed as cell growth inhibition measured after 72 hrs by CellTiter-Glo assay.
The nature of assay [2]: Inhibition of EGFR L858R/T790M/C797S triple mutant in human NCI-H1975 cells assessed as cell growth inhibition measured after 72 hrs by CellTiter-Glo assay.

For the compound `COc1cc2ncnc(NCc3ccc(NC(=O)C(c4ccccc4)N4Cc5ccccc5C4=O)cc3)c2cc1OCCCN1CCOCC1` (stereo not drawn), the results for the IC50 in assay [1] and in assay [2] were 1.45 µM and 12.4 µM, respectively.
Take `O=C(Nc1nccs1)C(c1ccccc1)N1Cc2ccccc2C1=O` (stereo not drawn): the IC50 in assay [1] is more than 10 µM.

For the origin of these results see BindingDB's records for doi:10.1016/j.bmc.2023.117534 (Zunyi Medical University, 2023).
